The numbers were not newly measured in article PMC7493416 (ACS Sustainable Chemistry & Engineering, 2019), which cites them from elsewhere.

The structures appear in SMILES notation.

For data set [1] the following is noted: general statement, no reference given.

Turning to `CN(C)C=O` [DMF, dimethylformamide], the Reproductive toxicity entry is recorded as “display reproductive toxicity”. Consider `CN1CCCC1=O` [NMP, N-methylpyrrolidone], for which the Reproductive toxicity result is “display reproductive toxicity”. Regarding `O=C1CCCCCC1` [cycloheptanone], the Solubility in water entry in data set [1] is “insoluble in water”.
